# Measurements taken from patent US20260001871A1, “TRIAZOLE DERIVATIVES AS MODULATORS OF MAS-RELATED G-PROTEIN RECEPTOR D” (ESCIENT PHARMACEUTICALS, INC., priority 2022, published 2026).
# Target: human MRGPRD (Homo sapiens, UniProt Q8TDS7)
# Assay: MRGPRD antagonist activity, IP-One HTRF assay in CHO cells stably expressing human MRGPRD (versus 100 μM β-Alanine agonist)
# Format: cell-based
# Summary of the method: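 CHO cells stably expressing human MRGPRD, plated overnight at 37 °C, were treated with antagonist plus agonist in Tris-HCl/NaCl/LiCl buffer pH 8, incubated 1 h at 37 °C then 1 h at room temperature. IP-1 accumulation read by HTRF; IC50 and percent antagonism of maximum efficacy averaged, SEM reported.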
# human MRGPRD, sequence (Q8TDS7 whole entry): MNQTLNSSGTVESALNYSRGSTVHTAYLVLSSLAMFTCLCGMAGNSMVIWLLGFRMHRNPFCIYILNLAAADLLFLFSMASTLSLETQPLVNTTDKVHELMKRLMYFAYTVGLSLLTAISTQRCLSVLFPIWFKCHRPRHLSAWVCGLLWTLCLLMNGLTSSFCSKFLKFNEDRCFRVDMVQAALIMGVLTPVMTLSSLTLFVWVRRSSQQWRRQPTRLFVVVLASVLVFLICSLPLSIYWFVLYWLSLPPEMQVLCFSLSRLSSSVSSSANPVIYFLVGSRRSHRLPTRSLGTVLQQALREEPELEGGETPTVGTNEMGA
row,IC50,SMILES
1,< 100 nM,Cc1nn(-c2ccccc2)c(C)c1-c1ccc(-n2nnc(C(=O)Nc3ccncc3)c2C2CC2)cc1 [Compound 7-11]
2,100 to 500 nM,Cc1nn2cccnc2c1-c1ccc(-n2nnc(C(=O)Nc3ccncc3)c2C2CC2)cc1 [Compound 7-31]
3,500 to 1000 nM,Cn1c(CNC(=O)c2nnn(-c3ccc(-c4ccc(C#N)cc4)cc3)c2C2CC2)nc2ccccc21 [Compound 15-5]
4,100 to 500 nM,Cn1ncc(-c2ccc(-n3nnc(C(=O)Nc4ccncc4)c3C3CC3)cc2)n1 [Compound 7-78]
5,500 to 1000 nM,C#Cc1ccc(-c2ccc(-n3nnc(C(=O)Nc4ccncc4)c3C3CC3)cc2)cc1 [Compound 7-150]
6,1000 to 3000 nM,CCc1ccc(C2(NC(=O)c3nnn(-c4ccc(-c5c(C)nn(CC)c5C)cc4)c3C3CC3)CC2)cn1 [Compound 9-31]
7,1000 to 3000 nM,CCc1ncccc1C1(NC(=O)c2nnn(-c3ccc(-c4ccc(C#N)cc4)cc3)c2C2CC2)CC1 [Compound 15-18]
8,500 to 1000 nM,CCn1cc(C(C)NC(=O)c2nnn(-c3ccc(-c4ccccc4)cc3)c2C2CC2)cn1 (stereo not shown) [Compound 14-27]
9,1000 to 3000 nM,Cc1ccc(CNC(=O)c2nnn(-c3ccc(-c4cnn5c4CCC5)cc3)c2C2CC2)cn1 [Compound 8-4]
10,500 to 1000 nM,Cc1nc(-c2ccc(-n3nnc(C(=O)Nc4ccncc4)c3C3CC3)cc2)sc1C [Compound 7-115]
11,500 to 1000 nM,O=C(Nc1ccncc1)c1nnn(-c2cccc(-c3cnn(C4CCCC4)c3)c2)c1C1CC1 [Compound 7-266]
12,500 to 1000 nM,Cc1ccc(-n2nnc(C(=O)Nc3ccncc3)c2C2CC2)cc1-c1cnn(C(C)C)c1 [Compound 7-260]
13,100 to 500 nM,Cc1cc(NC(=O)c2nnn(-c3ccc(-c4ccc(F)cc4)cc3)c2C2CC2)ccn1 [Compound 7-81]
14,100 to 500 nM,Cc1oncc1-c1ccc(-n2nnc(C(=O)Nc3ccncc3)c2C2CC2)cc1 [Compound 7-45]
15,100 to 500 nM,CC(O)c1ccc(-c2ccc(-n3nnc(C(=O)Nc4ccncc4)c3C3CC3)cc2)cc1 (stereo not shown) [Compound 7-83]
16,1000 to 3000 nM,Cn1cc(C2(NC(=O)c3nnn(C4CC=C(c5ccc(C#N)cc5)CC4)c3C3CC3)CC2)cn1 (stereo not shown) [Compound 12-6]
17,< 100 nM,CCc1cc(NC(=O)c2nnn(-c3ccc(-c4c(C)nn(C)c4C)cc3)c2C2CC2)ccn1 [Compound 9-2]
18,1000 to 3000 nM,NS(=O)(=O)c1ccccc1-c1ccc(-n2nnc(C(=O)Nc3ccncc3)c2C2CC2)cc1 [Compound 7-197]
19,1000 to 3000 nM,Cc1cscc1-c1ccc(-n2nnc(C(=O)Nc3ccncc3)c2C2CC2)cc1 [Compound 7-181]
20,1000 to 3000 nM,CC(NC(=O)c1nnn(-c2ccc(-c3ccccc3)cc2)c1C1CC1)c1ccn(C)n1 (stereo not shown) [Compound 14-33]
21,1000 to 3000 nM,CC(NC(=O)c1nnn(-c2ccc(-c3ccccc3)cc2)c1C1CC1)c1ccc(S(C)(=O)=O)cc1 (stereo not shown) [Compound 14-47]
22,> 3000 nM,N#CCc1ccc(-n2nnc(C(=O)Nc3ccncc3)c2C2CC2)cc1 [Compound 7-4]
23,1000 to 3000 nM,CCn1cc(C2(NC(=O)c3nnn(-c4ccc(-c5ccc(C#N)nc5)cc4)c3C(C)C)CC2)cn1 [Compound 18-27]
24,500 to 1000 nM,Cc1nn2ccccc2c1-c1ccc(-n2nnc(C(=O)NC3(c4cccnc4)CC3)c2C2CC2)cc1 [Compound 19-3]
25,1000 to 3000 nM,O=C(Nc1ccncc1)c1nnn(-c2ccc(-c3cccc(OC(F)(F)F)c3)cc2)c1C1CC1 [Compound 7-162]
26,100 to 500 nM,COc1cc(-c2c(C)nn(C)c2C)ccc1-n1nnc(C(=O)Nc2ccncc2)c1C1CC1 [Compound 7-226]
27,1000 to 3000 nM,Cn1cc(CNC(=O)c2nnn(-c3ccc(-c4ccccc4)cc3)c2C2CC2)cn1 [Compound 14-34]

row,IC50,SMILES
1,> 3000 nM,O=C(Nc1ccncc1)c1nnn(-c2cc3ccccc3o2)c1C1CC1 [Compound 4-1]
2,100 to 500 nM,CCc1cc(NC(=O)c2nnn(-c3ccc(-c4c(C)nn(CC)c4C)cc3)c2C2CC2)ccn1 [Compound 9-16]
3,> 3000 nM,CC(NC(=O)c1nnn(-c2ccc(-c3ccc(C#N)cc3)cc2)c1C1CC1)c1ccn(C)n1 (stereo not shown) [Compound 15-10]
4,500 to 1000 nM,N#Cc1ccc(-c2ccc(-n3nnc(C(=O)NC4(c5cccnc5)CC4)c3C3CC3)c(F)c2)cc1 [Compound 22-2]
5,1000 to 3000 nM,Cc1ccc(-n2nnc(C(=O)Nc3ccncc3)c2C2CC2)c(C(F)(F)F)c1 [Compound 4-6]
6,100 to 500 nM,Cc1cc(-c2ccc(-n3nnc(C(=O)Nc4ccncc4)c3C3CC3)cc2)ccc1C#N [Compound 7-60]
7,1000 to 3000 nM,CC(NC(=O)c1nnn(-c2ccc(-c3ccccc3)cc2)c1C1CC1)c1cccnc1 (stereo not shown) [Compound 14-49]
8,< 100 nM,Cc1nn(C)c(F)c1-c1ccc(-n2nnc(C(=O)Nc3ccncc3)c2C2CC2)cc1 [Compound 7-16]
9,1000 to 3000 nM,CC(=O)c1ccc(-c2cccc(-n3nnc(C(=O)NCc4ccc(C)nc4)c3C3CC3)c2)c(F)c1 [Compound 7-297]
10,100 to 500 nM,C#Cc1cc(NC(=O)c2nnn(-c3ccc(-c4ccccc4)cc3)c2C2CC2)ccn1 [Compound 14-18]
11,500 to 1000 nM,O=C(Nc1ccncc1)c1nnn(-c2ccc(-c3ccccc3O)cc2)c1C1CC1 [Compound 7-161]
12,1000 to 3000 nM,CCn1cc(CNC(=O)c2nnn(-c3ccc(-c4ccccc4)cc3)c2C2CC2)cn1 [Compound 14-31]
13,> 3000 nM,Cn1ncc2c(NC(=O)c3nnn(-c4ccc(-c5ccccc5)cc4)c3C3CC3)ncnc21 [Compound 14-79]
14,< 100 nM,Cc1cc(C#N)ccc1-c1ccc(-n2nnc(C(=O)Nc3ccncc3)c2C2CC2)cc1 [Compound 7-15]
15,100 to 500 nM,CC(=O)c1cccc(-c2ccc(-n3nnc(C(=O)Nc4ccncc4)c3C3CC3)cc2)c1F [Compound 7-85]
16,100 to 500 nM,O=C(Nc1ccncc1)c1nnn(-c2ccc(-c3ccc(CO)cc3)cc2)c1C1CC1 [Compound 7-69]
17,< 100 nM,Cc1cc(NC(=O)c2nnn(-c3ccc(-c4ccc(CC#N)cc4)cc3)c2C2CC2)ccn1 [Compound 15-1]
18,500 to 1000 nM,Cc1nn(C)c(C)c1-c1ccc(-n2nnc(C(=O)NC(C)(C)c3cccnc3)c2C2CC2)cc1 [Compound 15-13]
19,500 to 1000 nM,N#Cc1ccc(-c2ccc(-n3nnc(C(=O)Nc4cc(F)nc(F)c4)c3C3CC3)cc2)cc1F [Compound 9-37]
20,> 3000 nM,CC(C)(C)n1cc(NC(=O)c2nnn(-c3ccc(-c4ccccc4)cc3)c2C2CC2)cn1 [Compound 14-2]
21,< 100 nM,Cc1cc(NC(=O)c2nnn(-c3ccc(-c4c(C)nn(C)c4F)cc3)c2C2CC2)ccn1 [Compound 7-13]
22,1000 to 3000 nM,O=C(Nc1ccncc1)c1nnn(-c2cccc(-c3cn[nH]c3)c2)c1C1CC1 [Compound 7-310]
23,1000 to 3000 nM,O=C(Nc1ccncc1)c1nnn(-c2ccc(-c3cccc(CO)c3)cc2)c1C1CC1 [Compound 7-171]
24,100 to 500 nM,CC(C)C(=O)c1cccc(-c2ccc(-n3nnc(C(=O)Nc4ccncc4)c3C3CC3)cc2)c1 [Compound 7-67]
25,100 to 500 nM,CCn1nc(C)c(-c2ccc(-n3nnc(C(=O)NCc4cnn(C)c4)c3C3CC3)cc2)c1C [Compound 9-18]
26,1000 to 3000 nM,CCc1ccc(C2(NC(=O)c3nnn(-c4ccc(-c5c(C)nn6cccnc56)cc4)c3C3CC3)CC2)cn1 [Compound 10-8]
27,1000 to 3000 nM,CC1(C)COCCC1NC(=O)c1nnn(-c2ccc(-c3ccccc3)cc2)c1C1CC1 (stereo not shown) [Compound 14-44]

row,SMILES,IC50
1,CCn1cc(C2(NC(=O)c3nnn(-c4ccc(-c5ccc(C#N)c(F)c5)cc4)c3C(C)C)CC2)cn1 [Compound 17-23],100 to 500 nM
